Source: PubChem BioAssay (NCI)
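Briefly, cells in 96-well plates were exposed to five compound concentrations for 48 h, and endpoints were estimated by linear interpolation. TGI: total growth inhibition.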

Legend:
Test in all cases: NCI tumour cell line growth inhibition, 48 h
786-0 renal = system: 786-0 renal
A498 renal = system: A498 renal
A549 NSCLC = system: A549 NSCLC
ACHN renal = system: ACHN renal
CAKI-1 renal = system: CAKI-1 renal
CCRF-CEM leukemia = system: CCRF-CEM leukemia
COLO 205 colon = system: COLO 205 colon
DLD-1 colon = system: DLD-1 colon
DMS 114 small cell lung = system: DMS 114 small cell lung
DMS 273 small cell lung = system: DMS 273 small cell lung
EKVX NSCLC = system: EKVX NSCLC
HCC-2998 colon = system: HCC-2998 colon
HCT-116 colon = system: HCT-116 colon
HCT-15 colon = system: HCT-15 colon
HL-60(TB) leukemia = system: HL-60(TB) leukemia
HOP-18 NSCLC = system: HOP-18 NSCLC
HOP-62 NSCLC = system: HOP-62 NSCLC
HOP-92 NSCLC = system: HOP-92 NSCLC
HT29 colon = system: HT29 colon
IGROV1 ovarian = system: IGROV1 ovarian
K-562 leukemia = system: K-562 leukemia
KM12 colon = system: KM12 colon
KM20L2 colon = system: KM20L2 colon
LOX IMVI melanoma = system: LOX IMVI melanoma
LXFL 529 NSCLC = system: LXFL 529 NSCLC
M14 melanoma = system: M14 melanoma
M19-MEL melanoma = system: M19-MEL melanoma
MALME-3M melanoma = system: MALME-3M melanoma
MOLT-4 leukemia = system: MOLT-4 leukemia
NCI-H226 lung = system: NCI-H226 lung
NCI-H23 lung = system: NCI-H23 lung
NCI-H460 lung = system: NCI-H460 lung
NCI-H522 lung = system: NCI-H522 lung
OVCAR-3 ovarian = system: OVCAR-3 ovarian
OVCAR-4 ovarian = system: OVCAR-4 ovarian
OVCAR-5 ovarian = system: OVCAR-5 ovarian
OVCAR-8 ovarian = system: OVCAR-8 ovarian
RXF 393 renal = system: RXF 393 renal
RXF-631 renal = system: RXF-631 renal
SF-268 CNS = system: SF-268 CNS
SF-295 CNS = system: SF-295 CNS
SF-539 CNS = system: SF-539 CNS
SK-MEL-2 melanoma = system: SK-MEL-2 melanoma
SK-MEL-28 melanoma = system: SK-MEL-28 melanoma
SK-MEL-5 melanoma = system: SK-MEL-5 melanoma
SK-OV-3 ovarian = system: SK-OV-3 ovarian
SN12C renal = system: SN12C renal
SNB-19 CNS = system: SNB-19 CNS
SNB-75 CNS = system: SNB-75 CNS
SNB-78 CNS = system: SNB-78 CNS
SR leukemia = system: SR leukemia
SW-620 colon = system: SW-620 colon
TK-10 renal = system: TK-10 renal
U251 CNS = system: U251 CNS
UACC-257 melanoma = system: UACC-257 melanoma
UACC-62 melanoma = system: UACC-62 melanoma
UO-31 renal = system: UO-31 renal
XF 498 CNS = system: XF 498 CNS

SMILES: O=C1NC(=O)C(CCC(=O)c2ccc3ccccc3c2)C(=O)N1
- TGI (786-0 renal): > 100 µM
- TGI (A498 renal): > 100 µM
- TGI (A549 NSCLC): > 100 µM
- TGI (ACHN renal): > 100 µM
- TGI (CAKI-1 renal): > 100 µM
- TGI (CCRF-CEM leukemia): > 100 µM
- TGI (COLO 205 colon): > 100 µM
- TGI (DLD-1 colon): > 100 µM
- TGI (DMS 114 small cell lung): > 100 µM
- TGI (DMS 273 small cell lung): > 100 µM
- TGI (EKVX NSCLC): > 100 µM
- TGI (HCC-2998 colon): > 100 µM
- TGI (HCT-116 colon): > 100 µM
- TGI (HCT-15 colon): > 100 µM
- TGI (HL-60(TB) leukemia): > 100 µM
- TGI (HOP-18 NSCLC): > 100 µM
- TGI (HOP-62 NSCLC): > 100 µM
- TGI (HOP-92 NSCLC): > 100 µM
- TGI (HT29 colon): > 100 µM
- TGI (IGROV1 ovarian): > 100 µM
- TGI (K-562 leukemia): > 100 µM
- TGI (KM12 colon): > 100 µM
- TGI (KM20L2 colon): > 100 µM
- TGI (LOX IMVI melanoma): > 100 µM
- TGI (LXFL 529 NSCLC): > 100 µM
- TGI (M14 melanoma): > 100 µM
- TGI (M19-MEL melanoma): > 100 µM
- TGI (MALME-3M melanoma): > 100 µM
- TGI (MOLT-4 leukemia): > 100 µM
- TGI (NCI-H226 lung): > 100 µM
- TGI (NCI-H23 lung): > 100 µM
- TGI (NCI-H460 lung): > 100 µM
- TGI (NCI-H522 lung): 38.5 µM
- TGI (OVCAR-3 ovarian): > 100 µM
- TGI (OVCAR-4 ovarian): > 100 µM
- TGI (OVCAR-5 ovarian): > 100 µM
- TGI (OVCAR-8 ovarian): > 100 µM
- TGI (RXF 393 renal): > 100 µM
- TGI (RXF-631 renal): > 100 µM
- TGI (SF-268 CNS): > 100 µM
- TGI (SF-295 CNS): > 100 µM
- TGI (SF-539 CNS): > 100 µM
- TGI (SK-MEL-2 melanoma): > 100 µM
- TGI (SK-MEL-28 melanoma): > 100 µM
- TGI (SK-MEL-5 melanoma): > 100 µM
- TGI (SK-OV-3 ovarian): > 100 µM
- TGI (SN12C renal): > 100 µM
- TGI (SNB-19 CNS): > 100 µM
- TGI (SNB-75 CNS): > 100 µM
- TGI (SNB-78 CNS): > 100 µM
- TGI (SR leukemia): > 100 µM
- TGI (SW-620 colon): > 100 µM
- TGI (TK-10 renal): > 100 µM
- TGI (U251 CNS): > 100 µM
- TGI (UACC-257 melanoma): > 100 µM
- TGI (UACC-62 melanoma): > 100 µM
- TGI (UO-31 renal): > 100 µM
- TGI (XF 498 CNS): > 100 µM
